From patent US20250136997A1, “COMPOSITIONS FOR SEQUESTERING ISOAMYL AMINE AND METHODS OF USE THEREFOR” (University of Louisville Research Foundation, Inc., priority 2023, published 2025)

Columns and labels:
microglial cells = experiment: Western blot of cleaved caspase-3 and cleaved PARP in ex vivo cultured microglial cells; type: cell-based, mouse
Method: Isolation of microglia, neuron, astrocytes, and oligodendrocytes from the brain. Mice were anaesthetized with a mixture of ketamine (16%) and xylazine (3%) by intraperitoneal injection and then sacrificed under basal conditions by transcardial perfusion with perfusion buffer (Ca^2+/Mg^2+ free HBSS containing 0.5 mM EGTA, 10 mM HEPES and 4.2 mM NaHCO3; pH 7.2). The perfused brain was removed and gently mechanically disaggregated with tweezers in dissociation buffer (HBSS containing 10 mM HEPES and 4.2 mM NaHCO3 supplemented with Type I collagenase (0.05%), Dispase II (25 mg/ml), DNase I (2.5 mg/ml), trypsin inhibitor ([…]); pH 7.5) followed by incubation at 37° C. for 1 hour. The tissue homogenate was centrifuged at 1,350×g for 5 minutes at 4° C. For the isolation of microglia, the digestion enzymes in the tissue homogenate were inactivated by addition of PBS/EDTA containing 5% fetal bovine serum (FBS) and the digested brain bits were triturated gently, passed over a 100 µm filter (Fisher Scientific) and centrifuged. […] The pellet of cells was rinsed in PBS. Any contaminating red blood cells (RBC) were lysed using RBC lysis buffer (Sigma) according to the manufacturer's instructions, rinsed twice with PBS and passed through a 40 µm filter (Fisher Scientific). Cells were then stained for CD11b and CD45 for flow cytometry analysis. The astrocytes were isolated from mouse cortices (n=10). The tissue homogenate was centrifuged at 800×g for 10 minutes at 4° C. following digestion with type II collagenase (1 mg/ml) and type I DNase (10 U/ml) in DMEM for 10 minutes. The cells pelleted by centrifugation were plated in a 100 mm culture dish coated with poly-L-ornithine (Sigma). For the isolation of oligodendrocytes, the glial cells above were cultured in specific media containing T3 and T4 (0.5 mM) as well as platelet-derived growth factor (PDGF, 10 ng/ml) to promote the growth of the different cell types. Isolated glial cells were labelled with the following antibodies against surface markers: CD11b (Biolegend, Cat #101206), CD45 (Biolegend, Cat #147710), GFAP (Biolegend, Cat #837508) and MOG (Biorbyt, Cat #orb412341-FITC). Cells positive for CD11b and CD45Med were identified as microglia. Cells positive for GFAP and negative for CD45 and CD11b were identified as astrocytes. Cells sorted with MOG+CD11b− were identified as oligodendrocytes. Neurons were isolated from mouse brain using the Pierce Primary Neuron Isolation Kit (Thermo Scientific, Cat #88280). Briefly, the tissue homogenate from freshly dissected cortexes was suspended in an equal volume of ice cold HBSS (Sigma) and replaced with Neuronal Isolation Enzyme (with papain) in a 37° C. incubator for 30 minutes. After washing with HBSS, the tissue was cultured in a poly-D-lysine coated plate with Neuronal Culture Medium.
(§1) Western blotting. Cells were treated as indicated in individual Figure legends and whole cell extracts (WCE) were prepared in the radioimmunoprecipitation assay (RIPA) buffer (Sigma) with addition of protease and phosphatase inhibitors (Roche). Proteins were separated by 10% SDS-PAGE and transferred to polyvinylidene difluoride (PVDF) membranes (Bio-Rad Laboratories, Inc., Hercules, CA). Dual color precision protein MW markers (BioRad) were separated in parallel. Antibodies were purchased as follows: cleaved-caspase-3 (ab214430), cleaved PARP (ab203467) and GAPDH (ab9657, Abcam) from Abcam; S100A8 (47310) and S100a9 (72590) from Cell Signaling; and Ltf (GTX81085) from GeneTex. The secondary antibodies conjugated to Fluors Alex-488 (A32723) or Alex-594 (A11012) were purchased from Invitrogen (Eugene, OR). The bands were visualized on the Odyssey Imager (LiCor Inc, Lincoln, NE).

promoter of S100A8 = experiment: SPR of p53 protein and biotinylated oligo with or without IAA; type: binding, mouse
S100A8 promoter = experiment: Luciferase reporter with S100A8 promoter in microglia; type: cell-based, mouse
Description: Construction of the S100A8 promoter into the luciferase plasmid vector. To determine the activity of IAA on the promoter of S100A8, a sequence containing 1,037 bp of S100A8 promoter (GENBANK® Accession #: L76381) upstream −1,037 to −1 from transcription start site (TSS) was constructed into the luciferase C1 vector (Addgene, #163523). A DNA fragment was generated by PCR amplification with genomic DNA extracted from mouse liver tissue using DNeasy Blood & Tissue Kits (Qiagen, #69504). PCR was conducted using Q5 High-Fidelity PCR kit (New England Biolabs® Inc.) with the primers 51008A-prom, pLuc163523 and genomic DNA, and luciferase C1 plasmid as the template, respectively. The two PCR products purified using the Gel extraction kit (Qiagen) were seamlessly assembled into the pLuc-S100p using the NEBuilder HiFi DNA Assembly Cloning Kit (New England Biolabs® Inc.). The plasmid pLuc-S100p was transformed into DH5a and selected using kanamycin resistance. The DNA sequence was confirmed by DNA sequencing.
Site-directed mutagenesis within the S100A8 promoter. A mutant of IAA with the potential binding site on the S100A8 promoter was generated with the oligonucleotide primer S1008A-prom-Mut, which was designed to specifically disrupt the putative S100A8 binding site at its promoter (FIG. 3C). Q5® Site-Directed Mutagenesis Kit (New England Biolabs, MA, USA) was used in conjunction with specific primers (Table 3) to introduce S100A8 promoter mutations in the pLuc-S100p construct according to the manufacturer's instructions. After mutant strand synthesis and ligation, resultant plasmids were introduced into E. coli and transformants were selected using kanamycin resistance. The DNA sequence of mutants was confirmed by DNA sequencing.

S100A8 = experiment: Western blot of S100A8 in p53 KO microglia after IAA; type: cell-based, mouse; details: p53 KO with CRISPR-Cas9, IAA 12 h
Method: as §1

[1] = added to ex vivo cultured microglial cells from young mice

CC(C)CCN [IAA, isoamylamine]
effect on the microglia (cleaved caspase-3) (microglial cells; S100A8 deficient microglia cells): abolished | cleaved caspase-3 (microglial cells; [1]): increasing | cleaved poly(-ADP-ribose) polymerase (PARP) (microglial cells; [1]): increasing | p53 binding to promoter of S100A8 (SPR) (promoter of S100A8): p53 binds to promoter of S100A8 in an IAA dependent manner | effect of IAA on the S100A8 transcription (luciferase) (S100A8 promoter; p53 KO microglia with additional p53): recovered | IAA-induced S100A8 activation (luciferase) (S100A8 promoter; p53 deficiency (p53 KO microglia)): attenuated | luciferase activity, S100A8 promoter sequence (S100A8 promoter; wild-type promoter, microglia, 12 h after IAA): activated | S100A8 induced by IAA (western blot) (S100A8): p53 dependent
